The assay is described as follows: Sensory evaluation on damaged hair after using shampoo agent containing organic ammonium salt. Details: species or system human. Conditions: shampoo agent containing the compound; treated 10 times. The protocol: Next, the mixture was cooled to a temperature of 30° C. or lower, and a purified water of an evaporated amount was then added thereto so that the whole hair treatment composition would be 100% by mass, followed by uniformly mixing them so as to obtain a hair treatment composition(s). The pH level of the hair treatment composition was adjusted to pH 6.0 by adding a citric acid or sodium hydroxide.
The damaged hair was repeatedly treated 10 times in a similar manner as 3-1; evaluated were a cohesiveness of the hair, surface smoothness of the hair and waviness of the hair after performing air drying.

`OCC(O)CO` [Compound A52, glycerin, reference compound]: the “Sensory evaluation of damaged hair after shampoo agent (cohesiveness, surface smoothness, waviness)” value is “inferior surface smoothness”.

Values taken from patent US20250090437A1, “COSMETIC COMPOUNDING AGENT, COSMETIC AND PRODUCTION METHOD THEREOF” (MIYOSHI OIL & FAT CO., LTD., priority 2019, published 2025).
